Laboratory results from patent publication US20260250325A1, “Antiviral Polypeptide Membrane Fusion Inhibitor, and Preparation Method and Application Thereof” (priority 2025, published 2026).
Where a SMILES comes first, the peptide text is derived from it. The star is where a group is joined. Succinyl(4-O-cholesteryl) = CC(C)CCC[C@@H](C)[C@H]1CC[C@H]2[C@@H]3CC=C4C[C@@H](OC(=O)CCC(=O)*)CC[C@]4(C)[C@H]3CC[C@]12C

Columns and labels:
hPIV3 C243 virus strain = assay type: cell-based, hPIV; settings: LLC-MK2 cells, hPIV3 C243, plaque reduction; read-out: EC50 against hPIV3 virus
Procedure, shortened: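 LLC-MK2 cells (40,000/well) infected with about 200 PFU of virus preincubated 1 h with the sample, then overlaid with 0.8% CMC medium containing the sample (0.5% DMSO) for 1 day at 37 °C. Plaques immunostained with TrueBlue and counted; 8 concentrations in duplicate, EC50 from a four-parameter fit.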

hPIV-N51 (139-189) = biological target: T1, hPIV-N51 (139-189) (Human parainfluenza 3 virus, UniProt P06828); test: SPR affinity to hPIV-N51 coupled on CM5 chip; assay type: binding
T1 construct: hPIV-N51 (139-189)
T1 sequence (P06828 139-189): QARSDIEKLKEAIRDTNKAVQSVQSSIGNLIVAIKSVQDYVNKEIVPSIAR

CC[C@H](C)[C@H](NC(=O)[C@H](CO)NC(=O)[C@H](C)NC(=O)[C@H](CC(=O)O)NC(=O)[C@H](Cc1ccccc1)NC(=O)[C@H](CCC(=O)O)NC(=O)[C@H](CC(=O)O)NC(=O)[C@H](Cc1c[nH]c2ccccc12)NC(C)=O)C(=O)N[C@@H](CCC(=O)O)C(=O)N[C@@H](CCC(=O)O)C(=O)N[C@H](C(=O)N[C@@H](CC(N)=O)C(=O)N[C@@H](CCCNC(=N)N)C(=O)N[C@@H](CCCNC(=N)N)C(=O)N[C@H](C(=O)N[C@@H](CCC(=O)O)C(=O)N[C@@H](CCC(=O)O)C(=O)N[C@@H](CO)C(=O)N[C@@H](CC(C)C)C(=O)N[C@@H](CCCNC(=N)N)C(=O)N[C@@H](CCCNC(=N)N)C(=O)N[C@H](C(=O)N[C@@H](CCC(=O)O)C(=O)N[C@@H](CCC(=O)O)C(=O)N[C@@H](CO)C(=O)N[C@@H](CC(=O)O)C(=O)N[C@@H](CCCNC(=N)N)C(=O)N[C@@H](CCCNC(=N)N)C(=O)N[C@@H](CC(C)C)C(=O)N[C@@H](CCC(=O)O)C(=O)N[C@@H](CCC(=O)O)C(=O)N[C@H](C(=O)N[C@@H](CCC(=O)O)C(=O)N[C@@H](C)C(=O)N[C@@H](C)C(=O)N[C@@H](C)C(=O)N[C@@H](CCCCN)C(=O)N[C@@H](CCCCNC(=O)CCC(=O)O[C@H]1CC[C@@]2(C)C(=CC[C@H]3[C@@H]4CC[C@H]([C@H](C)CCCC(C)C)[C@@]4(C)CC[C@@H]32)C1)C(N)=O)C(C)C)[C@@H](C)CC)[C@@H](C)CC)C(C)C [Compound 43] (Ac-WDEFDASIEEVNRRIEESLRRIEESDRRLEEVEAAAKK(Succinyl(4-O-cholesteryl))-NH2)
EC50 (hPIV3 C243 virus strain): 16.1 nM | Kd (hPIV-N51 (139-189)): 5720 nM

CC[C@H](C)[C@H](NC(=O)[C@H](CCCCN)NC(=O)[C@H](CCCCN)NC(=O)[C@H](CC(C)C)NC(=O)[C@H](CO)NC(=O)[C@H](CCC(=O)O)NC(=O)[C@H](CCC(=O)O)NC(=O)[C@@H](NC(=O)[C@H](CCCCN)NC(=O)[C@H](CCCCN)NC(=O)[C@H](CC(N)=O)NC(=O)[C@@H](NC(=O)[C@H](CCC(=O)O)NC(=O)[C@H](CCC(=O)O)NC(=O)[C@@H](NC(=O)[C@H](CCCCN)NC(=O)[C@H](CCCCN)NC(=O)[C@H](CC(=O)O)NC(=O)[C@H](Cc1ccccc1)NC(=O)[C@H](CCC(=O)O)NC(=O)[C@H](CC(=O)O)NC(=O)[C@H](Cc1c[nH]c2ccccc12)NC(C)=O)[C@@H](C)CC)C(C)C)[C@@H](C)CC)C(=O)N[C@@H](CCC(=O)O)C(=O)N[C@@H](CCC(=O)O)C(=O)N[C@@H](CO)C(=O)N[C@@H](CC(=O)O)C(=O)N[C@@H](CCCCN)C(=O)N[C@@H](CCCCN)C(=O)N[C@@H](CC(C)C)C(=O)N[C@@H](Cc1c[nH]cn1)C(=O)N[C@@H](CC(N)=O)C(=O)N[C@H](C(=O)N[C@@H](CCC(=O)O)C(=O)N[C@@H](C)C(=O)N[C@@H](C)C(=O)N[C@@H](C)C(=O)N[C@@H](CCCCN)C(=O)N[C@@H](CCCCNC(=O)CCC(=O)O[C@H]1CC[C@@]2(C)C(=CC[C@H]3[C@@H]4CC[C@H]([C@H](C)CCCC(C)C)[C@@]4(C)CC[C@@H]32)C1)C(N)=O)C(C)C [Compound 44] (Ac-WDEFDKKIEEVNKKIEESLKKIEESDKKLHNVEAAAKK(Succinyl(4-O-cholesteryl))-NH2)
EC50 (hPIV3 C243 virus strain): 27.9 nM | Kd (hPIV-N51 (139-189)): 6860 nM

CC[C@H](C)[C@H](NC(=O)[C@H](CO)NC(=O)[C@H](C)NC(=O)[C@H](CC(=O)O)NC(=O)[C@H](Cc1ccccc1)NC(=O)[C@H](CCC(=O)O)NC(=O)[C@H](CC(=O)O)NC(=O)[C@H](Cc1c[nH]c2ccccc12)NC(C)=O)C(=O)N[C@@H](CO)C(=O)N[C@@H](CCC(N)=O)C(=O)N[C@H](C(=O)N[C@@H](CC(N)=O)C(=O)N[C@@H](CCC(=O)O)C(=O)N[C@@H](CCCCN)C(=O)N[C@H](C(=O)N[C@@H](CC(N)=O)C(=O)N[C@@H](CCC(N)=O)C(=O)N[C@@H](CO)C(=O)N[C@@H](CC(C)C)C(=O)N[C@@H](CCC(=O)O)C(=O)N[C@@H](CCC(=O)O)C(=O)N[C@H](C(=O)N[C@@H](CCCNC(=N)N)C(=O)N[C@@H](CCCCN)C(=O)N[C@@H](CO)C(=O)N[C@@H](CC(=O)O)C(=O)N[C@@H](CCC(=O)O)C(=O)N[C@@H](CC(C)C)C(=O)N[C@@H](CC(C)C)C(=O)N[C@@H](Cc1c[nH]cn1)C(=O)N[C@@H](CC(N)=O)C(=O)N[C@@H](CCC(=O)O)C(=O)N[C@@H](C)C(=O)N[C@@H](C)C(=O)N[C@@H](C)C(=O)N[C@@H](CCCCN)C(=O)N[C@@H](CCCCNC(=O)CCC(=O)O[C@H]1CC[C@@]2(C)C(=CC[C@H]3[C@@H]4CC[C@H]([C@H](C)CCCC(C)C)[C@@]4(C)CC[C@@H]32)C1)C(N)=O)[C@@H](C)CC)[C@@H](C)CC)C(C)C [Compound 45] (Ac-WDEFDASISQVNEKINQSLEEIRKSDELLHNEAAAKK(Succinyl(4-O-cholesteryl))-NH2)
EC50 (hPIV3 C243 virus strain): 36.3 nM | Kd (hPIV-N51 (139-189)): 179000 nM

CC[C@H](C)[C@H](NC(=O)[C@H](CCCCN)NC(=O)[C@H](CCCCN)NC(=O)[C@H](CC(C)C)NC(=O)[C@H](CO)NC(=O)[C@H](CCC(N)=O)NC(=O)[C@H](CC(N)=O)NC(=O)[C@@H](NC(=O)[C@H](CCCCN)NC(=O)[C@H](CCCCN)NC(=O)[C@H](CC(=O)O)NC(=O)[C@H](Cc1ccccc1)NC(=O)[C@H](CCC(=O)O)NC(=O)[C@@H](NC(=O)[C@H](CCCCN)NC(=O)[C@H](CCCCN)NC(=O)[C@H](CC(N)=O)NC(=O)[C@@H](NC(=O)[C@H](CC(C)C)NC(=O)[C@H](CCC(=O)O)NC(=O)[C@H](CC(=O)O)NC(=O)[C@H](CO)NC(C)=O)C(C)C)[C@@H](C)CC)[C@@H](C)CC)C(=O)N[C@@H](CCC(=O)O)C(=O)N[C@@H](CCC(=O)O)C(=O)N[C@@H](CO)C(=O)N[C@@H](CC(=O)O)C(=O)N[C@@H](CCCCN)C(=O)N[C@@H](CCCCN)C(=O)N[C@@H](CCCCN)C(=O)N[C@@H](CC(C)C)C(=O)N[C@@H](CCC(=O)O)C(=O)N[C@@H](C)C(=O)N[C@@H](C)C(=O)N[C@@H](C)C(=O)N[C@@H](CCCCN)C(=O)N[C@@H](CCCCN)C(N)=O [Compound 51] (Ac-SDELVNKKIEFDKKINQSLKKIEESDKKKLEAAAKK-NH2)
EC50 (hPIV3 C243 virus strain): 18.8 nM | Kd (hPIV-N51 (139-189)): 51.4 nM

Ac-FDEEISQVNEKINQSLAFIRKSDELLHNVNAGKSTTEAAAKK(Succinyl(4-O-cholesteryl))-NH2 [Compound 26]
EC50 (hPIV3 C243 virus strain): 1.35 nM | Kd (hPIV-N51 (139-189)): 2580 nM

Ac-LVKKIDEFDASISQVNEKINQSLEEIRKSDELLHNVGSGSGK(Succinyl(4-O-cholesteryl))-NH2 [Compound 29]
EC50 (hPIV3 C243 virus strain): 26.3 nM | Kd (hPIV-N51 (139-189)): 1730 nM

Ac-WDEFDASISQVNEKINQSLEEIRKSDELLHNVNAGLGSGSGK(Succinyl(4-O-cholesteryl))-NH2 [Compound 27]
EC50 (hPIV3 C243 virus strain): 27.2 nM | Kd (hPIV-N51 (139-189)): 812 nM

Ac-WDEFDASISQVNEKINQSLEEIRKSDELLHNVNALEAAAKK(Succinyl(4-O-cholesteryl))-NH2 [Compound 38]
EC50 (hPIV3 C243 virus strain): 26.4 nM | Kd (hPIV-N51 (139-189)): 24500 nM
